What was measured:
Format in all cases: cell-based
[1] = test system: nerve cells derived from a rat fetus (hippocampus); experiment: Survival of cultured isolated nerve cells (hippocampus); settings: serum-free DF medium, 3 days culture, 10 μM beraprost sodium, student t-test vs control
Text: (§1) Effect of improving survival rate of cultured isolated nerve cells:
(§2) The protective effect of beraprost sodium on nerve cells was examined by using nerve cells derived from a rat fetus. The cerebral cortex and hippocampus were obtained from the brain of a rat fetus of 17 days age, and isolated nerve cells were obtained therefrom by trypsin and pipetting treatment. The thus-obtained cells were inoculated into a 48-well culture plate coated with polylysine at a cell concentration of 5×10^3 cells/cm^2; followed by culture in a DF medium containing no serum at 37° C. for 3 days. After completion of culture, the cells were fixed by formalin, and the number of cells having axons was measured under a microscope. Beraprost sodium was added in an amount of each of 1, 10 and 100 μM during culture.
(§3) The results are shown in FIG. 1 (In the figure, * and ** represent student t-test results. *: p<0.05 vs control. **: p<0.01 vs control. This applies to the description below). The nerve cells gradually died and fell under the conditions in this example, beraprost sodium prevented falling of the nerve cells, and increased the number of survival cells depending upon the concentration.

Human glioma cells = experiment: Human glioma cell disorder due to peroxide (TBH)
Method: Human glioma cells were separated from a patient of glioma (person), and then subjected to subculture in a 10% FCS-D-MEM medium (a Dulbecco's MEM medium (Nissui) containing 10% fetal calf serum). The cells were dispersed into single cells by trypsin-EDTA treatment, and then a 10% FCS-D-MEM medium was added to recover the cells, followed by centrifugation at 1200 rpm for 5 minutes. After centrifugation, the cells were prepared to 1×10^6 cells/ml by a HEPES buffer (Hanks' solution (Nissui) containing 15 mM HEPES, pH 7.4), and beraprost sodium (0.1 to 30 μM) was added to the cell solution, followed by incubation at 37° C. for 30 minutes. Then, […] of TBH (tertiary butyl hydroperoxide, Funakoshi) as a peroxide was added to the cell solution, followed by further incubation at 37° C. for 30 minutes. After reaction was stopped under ice cooling, some of the cells are collected, and divided into living cells and dead cells by trypan blue staining, followed by counting to determine the survival rate of the cells. The residual cells were centrifuged at 2000 rpm for 5 minutes, and then the amount of thiobarbituric acid reaction substance (TBARS amount) was measured according to the known method (Ohkawa, H., Ohnishi, N. and Yagi, K. Anal. Biochem., 95, 351-358 (1979)) and considered as an index of peroxidation of cell membrane lipid. […]

[2] = test system: nerve cells derived from a rat fetus (cerebral cortex); experiment: Survival of cultured isolated nerve cells (cerebral cortex); settings: serum-free DF medium, 3 days culture, 1 and 10 μM beraprost sodium, student t-test vs control
Text: as §1, §2, §3

beraprost sodium
number of survival cells (cells having axons) [1]: increase was significant
decrease in the survival rate of cells by TBH treatment (trypan blue staining) (Human glioma cells; 0.1 μM or more of beraprost sodium, 30 min pre-incubation, then 800 μm TBH for 30 min at 37° C.): significantly (p<0.01) suppressed
TBARS amount as an index of peroxidation of cell membrane lipid (increase by TBH treatment) (Human glioma cells; beraprost sodium 0.1 to 30 μM, TBH-treated cells): did not affect such an increase
number of survival cells (cells having axons) [2]: increase was significant

From US6340693B1, “Protective agent for nervous system structural cells” (Toray Industries, Inc., priority 1997, dated 2002)
